# Laboratory results reported in patent US12371436B2, “Substituted benzodiazoliums as ENaC inhibitors” (ENTERPRISE THERAPEUTICS LIMITED, priority 2016, dated 2025).
# Target: T1, ENaC (Homo sapiens, UniProt P37088+P51168+P51170)
# T1 construct: host or cells: primary human bronchial epithelial cells (HBECs) differentiated at air-liquid interface
# T1 sequence (P37088 1-669): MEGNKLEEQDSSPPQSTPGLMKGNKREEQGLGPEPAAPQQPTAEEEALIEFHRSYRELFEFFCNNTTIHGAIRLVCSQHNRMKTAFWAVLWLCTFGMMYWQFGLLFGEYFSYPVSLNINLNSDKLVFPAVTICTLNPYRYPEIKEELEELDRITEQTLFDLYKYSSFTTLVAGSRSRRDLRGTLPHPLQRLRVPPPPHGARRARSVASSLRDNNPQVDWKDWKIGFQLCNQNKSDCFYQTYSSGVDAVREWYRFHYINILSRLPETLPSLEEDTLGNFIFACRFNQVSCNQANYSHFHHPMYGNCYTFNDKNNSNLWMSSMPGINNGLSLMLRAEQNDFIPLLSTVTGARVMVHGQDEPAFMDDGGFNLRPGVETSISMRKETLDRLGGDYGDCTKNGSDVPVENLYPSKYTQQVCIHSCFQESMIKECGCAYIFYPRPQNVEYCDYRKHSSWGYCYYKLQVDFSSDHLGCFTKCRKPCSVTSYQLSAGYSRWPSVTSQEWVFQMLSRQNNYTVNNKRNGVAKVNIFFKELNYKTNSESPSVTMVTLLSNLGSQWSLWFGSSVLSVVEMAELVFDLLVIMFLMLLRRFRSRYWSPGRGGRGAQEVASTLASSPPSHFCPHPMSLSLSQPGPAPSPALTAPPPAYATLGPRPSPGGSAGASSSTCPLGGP
# T1 sequence (P51168 1-640): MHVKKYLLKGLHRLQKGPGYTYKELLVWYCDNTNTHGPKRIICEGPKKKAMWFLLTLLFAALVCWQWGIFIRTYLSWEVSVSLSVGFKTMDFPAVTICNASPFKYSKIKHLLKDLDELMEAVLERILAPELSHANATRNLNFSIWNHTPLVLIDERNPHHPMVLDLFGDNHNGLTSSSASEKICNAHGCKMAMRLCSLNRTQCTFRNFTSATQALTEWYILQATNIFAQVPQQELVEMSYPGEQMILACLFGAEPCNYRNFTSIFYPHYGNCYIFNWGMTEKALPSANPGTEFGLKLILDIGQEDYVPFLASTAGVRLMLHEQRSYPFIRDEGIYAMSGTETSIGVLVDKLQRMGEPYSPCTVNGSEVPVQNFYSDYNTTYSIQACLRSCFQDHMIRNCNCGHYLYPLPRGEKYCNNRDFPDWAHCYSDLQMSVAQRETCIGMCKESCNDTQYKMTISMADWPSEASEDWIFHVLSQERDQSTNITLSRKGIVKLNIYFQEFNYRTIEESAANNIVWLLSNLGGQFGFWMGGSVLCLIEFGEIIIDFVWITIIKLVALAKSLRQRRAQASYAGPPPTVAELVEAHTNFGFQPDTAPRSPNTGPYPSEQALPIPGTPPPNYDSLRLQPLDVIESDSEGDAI
# T1 sequence (P51170 1-649): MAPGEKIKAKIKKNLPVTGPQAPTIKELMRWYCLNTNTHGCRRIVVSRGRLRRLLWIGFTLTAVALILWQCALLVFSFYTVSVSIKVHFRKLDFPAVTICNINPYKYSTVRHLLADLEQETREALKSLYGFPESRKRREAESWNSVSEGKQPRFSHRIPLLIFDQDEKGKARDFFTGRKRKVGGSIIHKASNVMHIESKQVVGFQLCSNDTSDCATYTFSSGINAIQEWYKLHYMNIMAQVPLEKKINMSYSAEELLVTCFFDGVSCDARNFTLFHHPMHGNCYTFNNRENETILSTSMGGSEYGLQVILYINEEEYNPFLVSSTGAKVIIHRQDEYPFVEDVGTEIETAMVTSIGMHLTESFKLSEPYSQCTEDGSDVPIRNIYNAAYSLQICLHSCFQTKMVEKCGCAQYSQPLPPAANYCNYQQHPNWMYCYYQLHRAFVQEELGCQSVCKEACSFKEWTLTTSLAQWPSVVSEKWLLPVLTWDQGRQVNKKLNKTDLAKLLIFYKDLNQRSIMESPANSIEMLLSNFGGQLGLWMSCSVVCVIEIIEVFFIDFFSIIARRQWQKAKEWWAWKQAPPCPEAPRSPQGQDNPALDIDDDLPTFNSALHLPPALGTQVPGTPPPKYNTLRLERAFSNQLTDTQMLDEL
# Assay: Short circuit current assay to determine ENaC blocker potency in human bronchial epithelial cells
# Format: cell-based
# Conditions: 50% inhibition of total amiloride-sensitive ISC, apical addition, read-out: Averages.ENaC IC50 (nM) Avg
# How it was run: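 Primary human bronchial epithelial cells at air-liquid interface (days 14–21) were voltage-clamped at 0 mV in Ussing chambers (Ringer, pH 7.4, 37° C.). Compounds were added apically as cumulative concentrations, then 10 μM amiloride. IC50 was taken as 50% inhibition of amiloride-sensitive ISC.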
row,IC50 [nM],Structure (SMILES)
1,18,"CCn1c(CNC(=O)c2nc3cc[nH]c3nc2N)[n+](CC)c2ccc(C(=O)NCCCN(C[C@H](O)[C@@H](O)[C@H](O)[C@H](O)CO)C[C@H](O)[C@@H](O)[C@H](O)[C@H](O)CO)cc21 [Example 48, 2-[({3-amino-5H-pyrrolo[2,3-b]pyrazin-2-yl}formamido)methyl]-6-[(3-{bis[(2S,3R,4R,5R)-2,3,4,5,6-pentahydroxyhexyl]amino}propyl)carbamoyl]-1,3-diethyl-1H-1,3-benzodiazol-3-ium]"
2,38,"CCn1c(CNC(=O)c2nc3cc[nH]c3nc2N)[n+](CC)c2ccc(C(=O)NCCN3CCC(N(C[C@H](O)[C@@H](O)[C@H](O)[C@H](O)CO)C[C@H](O)[C@@H](O)[C@H](O)[C@H](O)CO)CC3)cc21 [Example 51, 2-[({3-amino-5H-pyrrolo[2,3-b]pyrazin-2-yl}formamido)methyl]-6-{[2-(4-{bis[(2S,3R,4R,5R)-2,3,4,5,6-pentahydroxyhexyl]amino}piperidin-1-yl)ethyl]carbamoyl}-1,3-diethyl-1H-1,3-benzodiazol-3-ium]"
3,202,"CCn1c(CNC(=O)c2nc3cc[nH]c3nc2N)[n+](CC)c2ccc(C(=O)N3CC[C@@H](N(C[C@H](O)[C@@H](O)[C@H](O)[C@H](O)CO)C[C@H](O)[C@@H](O)[C@H](O)[C@H](O)CO)C3)cc21 [Example 53, 2-[({3-amino-5H-pyrrolo[2,3-b]pyrazin-2-yl}formamido)methyl]-6-[(3R)-3-{bis[(2S,3R,4R,5R)-2,3,4,5,6-pentahydroxyhexyl]amino}pyrrolidine-1-carbonyl]-1,3-diethyl-1H-1,3-benzodiazol-3-ium]"
4,49,"CCn1c(CNC(=O)c2nc3c(Cl)c[nH]c3nc2N)[n+](CC)c2ccc(C(=O)N3CCC(N(C[C@H](O)[C@@H](O)[C@H](O)[C@H](O)CO)C[C@H](O)[C@@H](O)[C@H](O)[C@H](O)CO)CC3)cc21 [Example 65, 2-[({3-amino-7-chloro-5H-pyrrolo[2,3-b]pyrazin-2-yl}formamido)methyl]-6-(4-{bis[(2S,3R,4R,5R)-2,3,4,5,6-pentahydroxyhexyl]amino}piperidine-1-carbonyl)-1,3-diethyl-1H-1,3-benzodiazol-3-ium]"
5,199,"CCn1c(CNC(=O)c2nc3c(Br)c[nH]c3nc2N)[n+](CC)c2ccc(C(=O)N3CCC(N(C[C@H](O)[C@@H](O)[C@H](O)[C@H](O)CO)C[C@H](O)[C@@H](O)[C@H](O)[C@H](O)CO)CC3)cc21 [Example 66, 2-[({3-amino-7-bromo-5H-pyrrolo[2,3-b]pyrazin-2-yl}formamido)methyl]-6-(4-{bis[(2S,3R,4R,5R)-2,3,4,5,6-pentahydroxyhexyl]amino}piperidine-1-carbonyl)-1,3-diethyl-1H-1,3-benzodiazol-3-ium]"

# Continued, compound first:
row,Structure (SMILES),IC50 [nM]
1,"CCn1c(CNC(=O)c2nc3cc[nH]c3nc2N)[n+](CC)c2ccc(C(=O)N3CCC(N)CC3)cc21 [Example 41, 2-[({3-amino-5H-pyrrolo[2,3-b]pyrazin-2-yl}formamido)methyl]-6-(4-aminopiperidine-1-carbonyl)-1,3-diethyl-1H-1,3-benzodiazol-3-ium]",11
2,"CCn1c(CNC(=O)c2nc3cc[nH]c3nc2N)[n+](CC)c2ccc(C(=O)NCCN3CCC(N)CC3)cc21 [Example 42, 2-[({3-amino-5H-pyrrolo[2,3-b]pyrazin-2-yl}formamido)methyl]-6-{[2-(4-aminopiperidin-1-yl)ethyl]carbamoyl}-1,3-diethyl-1H-1,3-benzodiazol-3-ium]",10
3,"CCn1c(CNC(=O)c2nc3cc[nH]c3nc2N)[n+](CC)c2ccc(OCCN(C[C@H](O)[C@@H](O)[C@H](O)[C@H](O)CO)C[C@H](O)[C@@H](O)[C@H](O)[C@H](O)CO)cc21 [Example 43, 2-[({3-amino-5H-pyrrolo[2,3-b]pyrazin-2-yl}formamido)methyl]-5-(2-{bis[(2S,3R,4R,5R)-2,3,4,5,6-pentahydroxyhexyl]amino}ethoxy)-1,3-diethyl-1H-1,3-benzodiazol-3-ium]",51
4,"CCn1c(CNC(=O)c2nc3cc[nH]c3nc2N)[n+](CC)c2ccc(OCCCN(C[C@H](O)[C@@H](O)[C@H](O)[C@H](O)CO)C[C@H](O)[C@@H](O)[C@H](O)[C@H](O)CO)cc21 [Example 44, 2-[({3-amino-5H-pyrrolo[2,3-b]pyrazin-2-yl}formamido)methyl]-5-(3-{bis[(2S,3R,4R,5R)-2,3,4,5,6-pentahydroxyhexyl]amino}propoxy)-1,3-diethyl-1H-1,3-benzodiazol-3-ium]",21
5,"CCn1c(CNC(=O)c2nc3cc[nH]c3nc2N)[n+](CC)c2cc(CCCN(C[C@H](O)[C@@H](O)[C@H](O)[C@H](O)CO)C[C@H](O)[C@@H](O)[C@H](O)[C@H](O)CO)ccc21 [Example 45, 2-[({3-amino-5H-pyrrolo[2,3-b]pyrazin-2-yl}formamido)methyl]-5-(3-{bis[(2S,3R,4R,5R)-2,3,4,5,6-pentahydroxyhexyl]amino}propyl)-1,3-diethyl-1H-1,3-benzodiazol-3-ium]",14
6,"CCn1c(CNC(=O)c2nc3cc[nH]c3nc2N)[n+](CC)c2ccc(C3CCN(C[C@H](O)[C@@H](O)[C@H](O)[C@H](O)CO)CC3)cc21 [Example 46, 2-[({3-amino-5H-pyrrolo[2,3-b]pyrazin-2-yl}formamido)methyl]-1,3-diethyl-6-{1-[(2S,3R,4R,5R)-2,3,4,5,6-pentahydroxyhexyl]piperidin-4-yl}-1H-1,3-benzodiazol-3-ium]",8
7,"CCn1c(CNC(=O)c2nc3cc[nH]c3nc2N)[n+](CC)c2ccc(-c3cnn(C4CCN(C[C@H](O)[C@@H](O)[C@H](O)[C@H](O)CO)CC4)c3)cc21 [Example 47, 2-[({3-amino-5H-pyrrolo[2,3-b]pyrazin-2-yl}formamido)methyl]-1,3-diethyl-6-(1-{1-[(2S,3R,4R,5R)-2,3,4,5,6-pentahydroxyhexyl]piperidin-4-yl}-1H-pyrazol-4-yl)-1H-1,3-benzodiazol-3-ium]",5
8,"CCn1c(CNC(=O)c2nc3cc[nH]c3nc2N)[n+](CC)c2ccc(C(=O)NC3CCN(C[C@H](O)[C@@H](O)[C@H](O)[C@H](O)CO)CC3)cc21 [Example 49, 2-[({3-amino-5H-pyrrolo[2,3-b]pyrazin-2-yl}formamido)methyl]-1,3-diethyl-6-({1-[(2S,3R,4R,5R)-2,3,4,5,6-pentahydroxyhexyl]piperidin-4-yl}carbamoyl)-1H-1,3-benzodiazol-3-ium]",7
9,"CCn1c(CNC(=O)c2nc3c(Cl)c[nH]c3nc2N)[n+](CC)c2ccc(C(=O)O)cc21 [Example 63, 2-[({3-amino-7-chloro-5H-pyrrolo[2,3-b]pyrazin-2-yl}formamido)methyl]-6-carboxy-1,3-diethyl-1H-1,3-benzodiazol-3-ium]",133
10,"CCn1c(CNC(=O)c2nc3c(Br)c[nH]c3nc2N)[n+](CC)c2ccc(C(=O)O)cc21 [Example 64, 2-[({3-amino-7-bromo-5H-pyrrolo[2,3-b]pyrazin-2-yl}formamido)methyl]-6-carboxy-1,3-diethyl-1H-1,3-benzodiazol-3-ium]",244
